Values of other authors, collected in patent US20250009831A1, “COMBINATION OF SCUTELLARIA EXTRACTS WITH CITRUS BERGAMIA OR CYNARA CARDUNCULUS EXTRACTS AND FORMULATIONS CONTAINING THEM” (AKHYNEX S.R.L., priority 2021, published 2025).

Tested on: rats treated with orotic acid to induce fatty liver disease

## O=C(O)[C@H]1O[C@@H](Oc2cc3oc(-c4ccccc4)cc(=O)c3c(O)c2O)[C@H](O)[C@@H](O)[C@@H]1O [baicalin]
rat, in vivo
  FFA-induced lipotoxicity: had a preventive effect on FFA-induced lipotoxicity
Rats treated with orotic acid
  accumulation of fats in the liver: inhibited the accumulation of fats in the liver
  hypertrophy of the hepatocytes: attenuated hypertrophy of the hepatocytes
